Data taken from patent US7632783B2 (priority 2004, dated 2009).

Columns and labels:
[1] = tested on: gray mold (Botrytis cinerea); assay: Tomato gray mold control test (preventive effects); assay type: in vivo; conditions: potted tomato (giant Fukuju variety), spraying liquid 300 ppm before spore inoculation, investigated 2 days after inoculation, levels 0 to 3
Protocol: Bulk drug was dissolved in a mixed solution of dimethylsulfoxide and methanol (volume ratio: 7/3), and spraying liquids containing 300 ppm of compounds of the present invention were uniformly sprayed onto potted test plants (tomato: giant Fukuju variety) in the second to third leaf stage. […], a suspension of pathogen spores were inoculated by spraying onto the pots in an inoculation room at a room temperature of 20 to 23° C. to promote the onset of disease. The degree of disease onset was investigated 2 days after inoculation. The test was carried out in duplicate.
Furthermore, the degree of disease onset was evaluated to one of four levels from 0 to 3 according to the criteria below by macroscopically observing the degree of disease onset of the test plants.
1: Degree of disease onset less than 40% of the untreated area
2: Degree of disease onset 40% to less than 80% of the untreated area
3: Degree of disease onset 80% or more

[2] = tested on: rice blast (Pyricularia oryzae); assay type: in vivo; conditions: potted rice (variety Karakaze), spraying liquid 300 ppm after spore inoculation, observed 7 days after inoculation, levels 0 to 3

## CC1(C)N=C(c2cnc3ccccc3c2)c2ccccc2C1(F)F [Example 177, 3-(4,4-difluoro-3,3-dimethyl-3,4-dihydroisoquinolin-1-yl)quinoline]
[1]
  degree of disease onset: 0
[2]
  degree of disease onset: 0

## CC1(C)N=C(c2cnc3ccccc3c2)c2cccc(F)c2C1F (stereo not drawn) [Example 174, 3-(4,5-difluoro-3,3-dimethyl-3,4-dihydroisoquinolin-1-yl)quinoline]
[1]
  degree of disease onset: 0
[2]
  degree of disease onset: 0

## CC1(C(F)(F)F)Cc2ccccc2C(c2cnc3ccccc3c2)=N1 (stereo not drawn) [Example 68, 3-(3-trifluoromethyl-3-methyl-3,4-dihydroisoquinolin-1-yl)quinoline]
[1]
  degree of disease onset: 0
[2]
  degree of disease onset: 0

## CC(=NOc1ccccc1)c1cccc2c1CC(C)(C)N=C2c1cnc2ccccc2c1 [Example 44, 1-(3,3-dimethyl-1-quinolin-3-yl-3,4-dihydroisoquinolin-5-yl)ethanone=O-phenyloxime]
[1]
  degree of disease onset: 0

## CC1(C)Cc2c(F)cccc2C(c2cnc3ccccc3c2)=N1.Cl [Example 103, 3-(5-fluoro-3,3-dimethyl-3,4-dihydroisoquinolin-1-yl)quinoline hydrochloride]
[1]
  degree of disease onset: 0
[2]
  degree of disease onset: 0

## CC1c2c(F)cccc2C(c2cnc3ccccc3c2)=NC1(C)C (stereo not drawn) [Example 120, 3-(5-fluoro-3,3,4-trimethyl-3,4-dihydroisoquinolin-1-yl)quinoline]
[1]
  degree of disease onset: 0

## CN1C(c2cnc3ccccc3c2)c2cccc(F)c2C(C)(C)C1(C)C (stereo not drawn) [Example 191, 3-(5-fluoro-2,3,3,4,4-pentamethyl-1,2,3,4-tetrahydroisoquinoline-1-yl)quinoline]
[1]
  degree of disease onset: 0

## CC1c2c(Cl)cccc2C(c2cnc3ccccc3c2)=NC1(C)C (stereo not drawn) [Example 121, 3-(5-chloro-3,3,4-trimethyl-3,4-dihydroisoquinolin-1-yl)quinoline]
[1]
  degree of disease onset: 0

## Fc1ccc(C2(CCl)Cc3ccccc3C(c3cnc4ccccc4c3)=N2)cc1 (stereo not drawn) [Example 75, 3-[3-chloromethyl-3-(4-fluorophenyl)-3,4-dihydroisoquinolin-1-yl]quinoline]
[1]
  degree of disease onset: 0
[2]
  degree of disease onset: 0

## CC1(C)N=C(c2cnc3ccc(F)cc3c2)c2cccc(F)c2C1(C)C [Example 163, 3-(5-fluoro-3,3,4,4-tetramethyl-3,4-dihydroisoquinolin-1-yl)-6-fluoroquinoline]
[1]
  degree of disease onset: 0
[2]
  degree of disease onset: 0

## CC1(C)Cc2c(F)cccc2C(c2cnc3ccccc3c2)=N1.O=C(O)/C=C/C(=O)O [Example 109, 3-(5-fluoro-3,3-dimethyl-3,4-dihydroisoquinolin-1-yl)quinoline fumarate]
[1]
  degree of disease onset: 0
[2]
  degree of disease onset: 0

## CCCC1(C)Cc2c(F)cccc2C(c2cnc3ccccc3c2)=N1 (stereo not drawn) [Example 58, 3-(5-fluoro-3-methyl-3-propyl-3,4-dihydroisoquinolin-1-yl)quinoline]
[1]
  degree of disease onset: 0
[2]
  degree of disease onset: 0

## CC1(c2ccccc2)Cc2ccccc2C(c2cnc3ccccc3c2)=N1 (stereo not drawn) [Example 71, 3-(3-methyl-3-phenyl-3,4-dihydroisoquinolin-1-yl)quinoline]
[1]
  degree of disease onset: 0
[2]
  degree of disease onset: 0

## CC1(C)N=C(c2cnc3ccccc3c2)c2cccc(F)c2C1(C)C.O=[N+]([O-])O [Example 158, 3-(5-fluoro-3,3,4,4-tetramethyl-3,4-dihydroisoquinolin-1-yl)quinoline nitrate]
[1]
  degree of disease onset: 0
[2]
  degree of disease onset: 0

## CC1(C)N=C(c2cnc3c(F)cccc3c2)c2cccc(F)c2C1(C)C [Example 164, 3-(5-fluoro-3,3,4,4-tetramethyl-3,4-dihydroisoquinolin-1-yl)-8-fluoroquinoline]
[1]
  degree of disease onset: 0
[2]
  degree of disease onset: 0

## CC1(C)Cc2c(ccc(Cl)c2Cl)C(c2cnc3ccccc3c2)=N1 [Example 53, 3-(5,6-dichloro-3,3-dimethyl-3,4-dihydroisoquinolin-1-yl)quinoline]
[1]
  degree of disease onset: 0

## CC1(C)Cc2c(C#N)cccc2C(c2cnc3ccccc3c2)=N1 [Example 51, 3-(5-cyano-3,3-dimethyl-3,4-dihydroisoquinolin-1-yl)quinoline]
[1]
  degree of disease onset: 0
[2]
  degree of disease onset: 0

## CC1(C)Cc2c(F)cccc2C(c2cnc3ccccc3c2)=N1.CS(=O)(=O)O [Example 107, 3-(5-fluoro-3,3-dimethyl-3,4-dihydroisoquinolin-1-yl)quinoline methanesulfonate]
[1]
  degree of disease onset: 0
[2]
  degree of disease onset: 0

## C#Cc1cccc2c1CC(C)(C)N=C2c1cnc2ccccc2c1 [Example 30, 3-(5-ethynyl-3,3-dimethyl-3,4-dihydroisoquinolin-1-yl)quinoline]
[1]
  degree of disease onset: 0
[2]
  degree of disease onset: 0

## CC1(C)c2ccccc2C(c2cnc3ccccc3c2)=[N+]([O-])C12CCCCC2 [Example 217]
[1]
  degree of disease onset: 0
[2]
  degree of disease onset: 0

## CC1(C)Cc2cc(Cl)ccc2C(c2cnc3ccccc3c2)=N1 [Example 20, 3-(6-chloro-3,3-dimethyl-3,4-dihydroisoquinolin-1-yl)quinoline]
[1]
  degree of disease onset: 0

## CC1(C)N2OC2(c2cnc3ccccc3c2)c2cccc(F)c2C1(F)F (stereo not drawn) [Example 203, 4,4,5-trifluoro-3,3-dimethyl-8b-quinolin-3-yl-4,8b-dihydro-3H-oxazileno[3,2-a]isoquinoline]
[1]
  degree of disease onset: 0
[2]
  degree of disease onset: 0

## CC1(c2ccc(Cl)cc2)Cc2ccccc2C(c2cnc3ccccc3c2)=N1 (stereo not drawn) [Example 73, 3-[3-(4-chlorophenyl)-3-methyl-3,4-dihydroisoquinolin-1-yl]quinoline]
[1]
  degree of disease onset: 0
[2]
  degree of disease onset: 0

## CC1(C)Cc2c(Br)cccc2C(c2cnc3ccccc3c2)=N1 [Example 22, 3-(5-bromo-3,3-dimethyl-3,4-dihydroisoquinolin-1-yl)quinoline]
[1]
  degree of disease onset: 0
[2]
  degree of disease onset: 0

## CC1(C)c2ccccc2C2(c3cnc4ccccc4c3)ON2C1(C)C (stereo not drawn) [Example 196, 3,3,4,4-tetramethyl-8b-quinolin-3-yl-4,8b-dihydro-3H-oxazileno[3,2-a]isoquinoline]
[1]
  degree of disease onset: 0
[2]
  degree of disease onset: 0

## CC1(C)c2c(F)cccc2C(c2cnc3ccccc3c2)=[N+]([O-])C1(C)C [Example 204, 3-(5-fluoro-3,3,4,4-tetramethyl-2-oxide-3,4-dihydroisoquinolin-1-yl)quinoline]
[1]
  degree of disease onset: 0
[2]
  degree of disease onset: 0

## CC1(c2ccc(F)cc2)Cc2ccccc2C(c2cnc3ccccc3c2)=N1 (stereo not drawn) [Example 72, 3-[3-(4-fluorophenyl)-3-methyl-3,4-dihydroisoquinolin-1-yl]quinoline]
[1]
  degree of disease onset: 0
[2]
  degree of disease onset: 0

## CC1(C)c2cc(F)ccc2C2(c3cnc4ccccc4c3)ON2C1(C)C (stereo not drawn) [Example 199, 6-fluoro-3,3,4,4-tetramethyl-8b-quinolin-3-yl-4,8b-dihydro-3H-oxazileno[3,2-a]isoquinoline]
[1]
  degree of disease onset: 0
[2]
  degree of disease onset: 0

## CC1(C)N=C(c2cnc3ccccc3c2)c2cccc(F)c2C1(C)C [Example 114, 3-(5-fluoro-3,3,4,4-tetramethyl-3,4-dihydroisoquinolin-1-yl)quinoline]
[1]
  degree of disease onset: 0
[2]
  degree of disease onset: 0

## CC1(C)Cc2c(Cl)cccc2C(c2cnc3ccccc3c2)=N1 [Example 18, 3-(5-chloro-3,3-dimethyl-3,4-dihydroisoquinolin-1-yl)quinoline]
[1]
  degree of disease onset: 0
[2]
  degree of disease onset: 0

## CC1(C)N=C(c2cnc3ccccc3c2)c2cccc(F)c2C1(C)C.Cl [Example 156, 3-(5-fluoro-3,3,4,4-tetramethyl-3,4-dihydroisoquinolin-1-yl)quinoline hydrochloride]
[1]
  degree of disease onset: 0
[2]
  degree of disease onset: 0

## C=C1c2c(F)cccc2C(c2cnc3ccccc3c2)=NC1(C)C [Example 175, 3-(5-fluoro-3,3-dimethyl-4-methylene-3,4-dihydroisoquinolin-1-yl)quinoline]
[1]
  degree of disease onset: 0

## CC1(C)N=C(c2cnc3ccccc3c2)c2cccc(Cl)c2C1(C)C [Example 123, 3-(5-chloro-3,3,4,4-tetramethyl-3,4-dihydroisoquinolin-1-yl)quinoline]
[1]
  degree of disease onset: 0

## CC1(C)N=C(c2cnc3ccccc3c2)c2ccc(Cl)cc2C1(C)C [Example 154, 3-(6-chloro-3,3,4,4-tetramethyl-3,4-dihydroisoquinolin-1-yl)quinoline]
[1]
  degree of disease onset: 0

## Clc1ccc2c(c1)CC1(CCCCC1)N=C2c1cnc2ccccc2c1 [Example 92, 6′-chloro-1′-quinolin-3-yl-4′H-spiro[cyclohexane-1,3′-isoquinoline]]
[1]
  degree of disease onset: 0

## CC1(C)Cc2cc(Br)ccc2C(c2cnc3ccccc3c2)=N1 [Example 23, 3-(6-bromo-3,3-dimethyl-3,4-dihydroisoquinolin-1-yl)quinoline]
[1]
  degree of disease onset: 0

## CC(C)CCC1(C)Cc2ccccc2C(c2cnc3ccccc3c2)=N1 (stereo not drawn) [Example 62, 3-(3-isopentyl-3-methyl-3,4-dihydroisoquinolin-1-yl)quinoline]
[2]
  degree of disease onset: 0

## CC1(C)N=C(c2cnc3ccccc3c2)c2cccc(F)c2C1(C)C.CS(=O)(=O)O [Example 159, 3-(5-fluoro-3,3,4,4-tetramethyl-3,4-dihydroisoquinolin-1-yl)quinoline methanesulfonate]
[1]
  degree of disease onset: 0
